Reference: patent publication US5773430A, “Serine proteinase inhibitory activity by hydrophobic tetracycline” (Research Foundation of State University of New York, priority 1997, dated 1998)
“Also recorded” adds a separate entry of the source. Like-named read-outs stand apart in the source and are kept apart here.

Legend:
[1] = tested on: human neutrophils (live PMN's); assay: Neutrophil (PMN + 0.5 nM PMA)-mediated R22-ECM hydrolysis (3H-proline cpm released in 6 h); format: cell-based; conditions: for ECM HYDROLYSIS (% CONTROL) / activity at 5 µM / activity at 25 µM / activity at 50 µM: control = hydrolysis in absence of any inhibitor normalized to 100%, 6 h at 37° C.; for activity at 5 µM / activity at 25 µM / activity at 50 µM: Homo sapiens, Neutrophil; for inhibition of ECM degradation, in words: 5-50 μM, Table 1 and FIG. 1
Excerpt: The activity of various tetracyclines was investigated employing an in vitro assay of inflammatory tissue injury in which human neutrophils are allowed to degrade a biosynthetically prepared complete interstitial stromal extracellular matrix (ECM). A neutrophil is one type of leukocyte (polymorphonuclear leukocyte). […] E. J. Roemer, K. J. Stanton, and S. R. Simon, "In Vitro Assay Systems for Inflammatory Cell-Mediated Damage to Interstitial Extracellular Matrix," In Vitro Toxicol. 7,75-81 (1994); E. J. Roemer, K. J. Stanton, and S. R. Simon, "In Vitro Assay Systems for Cell Interactions With Interstitial Extracellular Matrix," In Vitro Toxicol. 7,209-224 (1994).
The serine proteinase inhibiting activity of tetracyclines was tested using an in vitro assay of inflammatory tissue injury in which human neutrophils (live PMN's) were allowed to degrade a biosynthetically prepared complete interstitial stromal extracellular matrix (ECM) produced by cultured R22 rat heart smooth muscle cells as described by Roemer et al. (E. J. Roemer, K. J. Stanton, and S. R. Simon, "In Vitro Assay Systems for Inflammatory Cell-Mediated Damage to Interstitial Extracellular Matrix," In Vitro Toxicol. 7,75-81 (1994); E. J. Roemer, K. J. Stanton, and S. R. Simon, "In Vitro Assay Systems for Cell Interactions With Interstitial Extracellular Matrix," In Vitro Toxicol. 7,209-224 (1994)). Ten different chemically modified tetracyclines (CMTs) designated CMT-1 through CMT-10 and doxycycline, at concentrations ranging from 5 μM to 50 μM, were added to the ECM simultaneously with a suspension of 2×10^6 viable human PMN/mL in Hank's balanced salts solution (HBSS). In these studies, the ECM was metabolically radiolabeled with ^3 H-proline, and counts solubilized after six hours of incubation were measured and compared with counts released after incubation with PMN alone.

[2] = biological target: T1, human leukocyte elastase (HLE) (Homo sapiens, UniProt P08246); assay: HLE amidolytic activity (methoxysuccinyl-Ala-Ala-Pro-Val-p-nitroanilide); format: biochemical
T1 sequence (P08246 30-267): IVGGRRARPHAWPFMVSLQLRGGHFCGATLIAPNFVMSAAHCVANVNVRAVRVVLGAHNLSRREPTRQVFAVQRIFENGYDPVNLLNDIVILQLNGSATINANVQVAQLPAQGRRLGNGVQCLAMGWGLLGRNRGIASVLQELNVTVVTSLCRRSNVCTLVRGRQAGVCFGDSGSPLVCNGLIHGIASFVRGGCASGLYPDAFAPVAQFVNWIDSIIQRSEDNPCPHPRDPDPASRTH
Excerpt: This oligopeptide is generally assumed to occupy the first five subsites of the extended substrate binding domain in HLE.
To avoid time-dependent adsorption of HLE onto the wells of the 96-well microplates used in the amidolytic assays, the plates were pretreated with a solution of 0.2% bovine serum albumin. […] The […] concentration at which the Dixon plots intersect is a measure of Ki for the inhibitor.
The inhibitory activity of doxycycline towards amidolysis of methoxysuccinyl-Ala-Ala-Pro-Val-p-nitroanilide by HLE was also determined in the presence of 2% DMSO and no detergent, as described above for CMT-3.

MMP-8 = conditions: in vitro; read-out: K1, inhibition of MMP-8 activity in vitro; cited from earlier work
leukocyte elastase = biological target: T2, leukocyte elastase (Homo sapiens, UniProt P08246); assay: Leukocyte elastase inhibitory activity; format: biochemical
T2 sequence (P08246 30-247): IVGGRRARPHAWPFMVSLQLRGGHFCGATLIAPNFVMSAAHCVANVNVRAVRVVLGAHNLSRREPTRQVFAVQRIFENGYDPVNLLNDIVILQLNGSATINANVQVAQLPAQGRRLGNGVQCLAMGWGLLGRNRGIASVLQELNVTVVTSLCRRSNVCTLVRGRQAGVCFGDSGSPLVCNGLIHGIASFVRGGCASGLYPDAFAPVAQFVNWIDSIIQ

[3] = tested on: human neutrophils (live PMN's); conditions: cited from earlier work

Molecule	ECM HYDROLYSIS (% CONTROL) ([1]; 5 μm)	ECM HYDROLYSIS (% CONTROL) ([1]; 25 μm)	ECM HYDROLYSIS (% CONTROL) ([1]; 50 μm)	potency as inhibitors of the amidolytic activity of HLE, in words [2]	other results
CC1(O)c2cccc(O)c2C(=O)C2=C(O)C3(O)C(=O)C(C(N)=O)=C(O)CC3CC21 (centres unmarked) [CMT-1, 4-de(dimethylamino)tetracycline]	93	95	90		
CN(C)C1C(=O)C(C#N)=C(O)C2(O)C(=O)C3=C(O)c4c(O)cccc4C(C)(O)C3CC12 (centres unmarked) [CMT-2, tetracyclinonitrile]					activity at 5 µM ([1]; 5 μm): 91%; activity at 25 µM ([1]; 25 μm): 95%; activity at 50 µM ([1]; 50 μm): 100%
CC1(O)c2c(Cl)ccc(O)c2C(=O)C2=C(O)C3(O)C(=O)C(C(N)=O)=C(O)CC3CC21 (centres unmarked) [CMT-4, 7-chloro-4-de(dimethylamino)tetracycline]	90	98	130		
CC1(O)c2cccc(O)c2C(=O)C2=C(O)C3(O)C(=O)C(C(N)=O)=C(O)C(O)C3CC21 (centres unmarked) [CMT-6, 4-hydroxy-4-de(dimethylamino)tetracycline]	109	101	97		
CC1(O)c2cccc(O)c2C(=O)C2=C(O)C3C(=O)C(C(N)=O)=C(O)CC3CC21 (stereo not drawn) [CMT-7, 4-de(dimethylamino)-12α-deoxytetracycline]	97	84	100		
C[C@H]1c2cccc(O)c2C(O)=C2C(=O)[C@]3(O)C(O)=C(C(N)=O)C(=O)C[C@@H]3[C@@H](O)[C@@H]21 [CMT-8, 6-deoxy-5α-hydroxy-4-de(dimethylamino)tetracycline]	96	82	57		inhibition of ECM degradation, in words [1]: showed some inhibition of ECM degradation
Cc1c2c(c(O)c3c(O)cccc13)C(=O)C1C(O)=C(C(N)=O)C(=O)CC1C2 (stereo not drawn) [CMT-9, 4-de(dimethylamino)-12α-deoxyanhydrotetracycline]					activity at 5 µM ([1]; 5 μm): 88%; activity at 25 µM ([1]; 25 μm): 215%; activity at 50 µM ([1]; 50 μm): 190%
CN(C)c1ccc(O)c2c1C[C@H]1C[C@H]3CC(O)=C(C(N)=O)C(=O)[C@@]3(O)C(O)=C1C2=O [CMT-10, 4-de(dimethylamino)minocycline]					inhibition of ECM degradation, in words [1]: showed some inhibition of ECM degradation; activity at 5 µM ([1]; 5 μm): 101%; activity at 25 µM ([1]; 25 μm): 85%; activity at 50 µM ([1]; 50 μm): 80%
Cc1c2c(c(O)c3c(O)ccc(Cl)c13)C(=O)C1(O)C(O)=C(C(N)=O)C(=O)C(N(C)C)C1C2 (centres unmarked) [anhydrochlorotetracycline]				comparably low or no potency	
CN(C)[C@@H]1C(O)=C(C(N)=O)C(=O)[C@@]2(O)C(O)=C3C(=O)c4c(O)ccc(Cl)c4[C@@](C)(O)[C@H]3C[C@@H]12 [chlorotetracycline]				comparably low or no potency	
C[C@H]1c2cccc(O)c2C(=O)C2=C(O)[C@]3(O)C(=O)C(C(N)=O)=C(O)[C@@H](N(C)C)[C@@H]3[C@@H](O)[C@@H]21 [doxycycline]				only very weak inhibition; also recorded: only a very weak inhibitor of HLE	Ki (MMP-8): 25 to 50 µM; Ki ([2]; 2% DMSO, no detergent, 100 μM through 300 μM substrate, Dixon plot, read-out: Ki for inhibition of amidolytic activity of HLE): ~300 µM; Ki ([2]; Dixon and Cornish-Bowden plots, FIGS. 3-5, read-out: apparent K1, inhibition of amidolysis): > 300 µM; activity at 5 µM ([1]; 5 μm): 98%; activity at 25 µM ([1]; 25 μm): 92%; activity at 50 µM ([1]; 50 μm): 84%; leukocyte elastase inhibitory activity, in words (leukocyte elastase): do not exhibit substantial leukocyte elastase inhibitory activity
CN(C)C1C(=O)C(C(N)=O)=C(O)C2(O)C(=O)C3=C(O)c4c(O)ccc(Cl)c4C(C)(O)C3CC12 (stereo not drawn) [epi-chlorotetracycline]				comparably low or no potency	
CN(C)c1ccc(O)c2c1C[C@H]1C[C@H]3[C@H](N(C)C)C(O)=C(C(N)=O)C(=O)[C@@]3(O)C(O)=C1C2=O [minocycline]					leukocyte elastase inhibitory activity, in words (leukocyte elastase): do not exhibit substantial leukocyte elastase inhibitory activity
CN(C)C1C(=O)C(C(N)=O)=C(O)C2(O)C(=O)C3=C(O)c4c(O)cccc4C(C)(O)C3C(O)C12 (centres unmarked) [oxytetracycline]				comparably low or no potency	
tetracycline pyrazole [CMT-5]	78	112	102	comparably low or no potency	
αhd 1-PI: the major endogenous inhibitor of human leukocyte elastase					neutrophil-mediated degradation of ECM, inhibition in words [3]: virtually completely inhibited
